According to patent publication US11453642B2, “Oxygenated amino- or ammonium-containing sulfonic acid, phosphonic acid and carboxylic acid derivatives and their medical use” (GRI BIO, INC., priority 2011, dated 2022):
Marks after values point to notes of the source that are not given here.

Tests used:
[1] = system: local lymph node reaction; experiment: Local lymph node weight and cell count after TDI challenge; type: in vivo, mice; conditions: topical 1a 2% or 6%, diflorasone 0.1% and 0.5%
Description: Directly after sacrifice, the ear draining lymph node (Ln. auricularis) was prepared and excised. Organ weight was determined by means of an analytical balance (Kern, Balingen, Germany). Single cell suspensions were prepared by means of a glass potter (VWR, Darmstadt, Germany) and cells were counted with a hemocytometer (Neubauer, VWR, Germany).
One of the most undesirable side-effects of corticosteroid administration is immunosuppression, which leads to the inability to effectively address parasitic infection, wound healing and tumor growth. In the current study, the local lymph node reaction after TDI challenge (lymph node weight and cell number) was determined to assess the response of immune organs.

[2] = system: allergic contact dermatitis response in mice; experiment: Allergic contact dermatitis (TDI) model in mice, mouse ear swelling test; type: in vivo
Description: The anti-inflammatory and anti-allergic effects of compounds 1a and 1c were assessed in a mouse model of allergic contact dermatitis, a response driven primarily by T helper type 2 (Th2) cells. […] In this model, an allergic dermatitis response is obtained by sensitizing mice to TDI and subsequently challenging them with antigen by topical administration onto the ears. A quantitative assessment of anti-inflammatory and anti-allergic effects of topically or orally administered test compounds is possible by measuring the resulting ear swelling. The advantages of the allergic contact dermatitis model (Zöllner et al., Bioessays 26:693-6 (2004)) are reproducibility and reliability (>90% of BALB/c mice respond to sensitization), a short induction protocol, quantitative assessment by measuring ear thickness, atopic dermatitis-like skin lesions can be induced, and clinically relevant pharmaceuticals, such as corticosteroids, calcineurin-inhibitors and PDE4-inhibitors, are effective in this model.
Female BALB/c-mice were obtained from Charles River (Sulzfeld, Germany) at age 8 weeks. All animals were housed in groups of eight per cage at 22° C. with a 12 h light/dark-cycle, Water and a standard diet (Altromin, Lage/Lippe, Germany) were available ad libitum. All animals were acclimatized for one week before experimental procedures were commenced.
Experimental procedures for BALB/c mice housing, TDI sensitization and challenge, and measurement of ear thickness were performed as previously described (Baumer et al., J Pharm Pharmacol, 55:1107-1114 (2003)) with the following modifications. For active sensitization, 100 μL of 5% (w/v) TDI was administered to the shaved and stripped abdominal epidermis on day one, and for the next three consecutive days, 50 μL of 5% (My) TDI was applied. The allergic reaction was boosted 21 days later by application of 50 μL of 0.5% (w/v) TDI. For the examination of test compound effects, the left ears were used for the TDI challenge (20 μL of 0.5% in acetone) and ear thickness measured 3 h before and 24 h after challenge.
Group size was n=7 mice unless otherwise stated. Test compounds were freshly prepared before administration.
Administration time: to determine optimal time for administration treatment groups were treated orally by gavage with 100 mg/kg of compound 1a or 1c (suspended in 0.5% tylose, 10 mL/kg) 1, 4 or 16 h before topical TDI challenge. One group was treated with 100 mg/kg miltefosine orally, 16 h before challenge (based on available data for optimal administration time for miltefosine) and vehicle treated mice received tylose (10 mL/kg) orally, 4 h before challenge.
Dose-response: two groups of mice were treated orally with compound 1a at 25 mg/kg or 100 mg/kg suspended in 0.5% tylose, 4 h before topical TDI challenge. Vehicle treated mice received 0.5% tylose orally 4 h before challenge. As a positive control, dexamethasone was administered in saline solution at 1 mg/kg or 3 mg/kg, 2 h and 30 min before challenge and 1 h after challenge. The dose and dosing scheme for dexamethasone was based on previous experience showing a maximal effect in this model.
Compound 1a was administered to two groups of mice topically in 20 μl of a 2% or 6% solution in propyleneglycol. The suspension was heated to 60° C. and mixed using a thermomixer (Eppendorf) until it became clear. The solution was applied, 2 h before topical TDI challenge by administration of 10 μl onto each of the inner and outer surfaces of the left ears. A vehicle group (17=5) was treated with propyleneglycol. As a positive control, diflorasone, diacetate was administered at 0.01% (low dose) and 0.05% (high dose) in 20 μl acetone, 2 h before challenge. A basal control group was left untreated.
Mean and standard error of the mean (SEM) were calculated from individual ear edema values. […]

[3] = system: allergic contact dermatitis response in mice; experiment: as above; type: in vivo; conditions: topical, 0.5% in 20 μl acetone, 2 h before challenge

CC(=O)OCC(=O)[C@@]1(OC(C)=O)[C@@H](C)C[C@H]2[C@@H]3C[C@H](F)C4=CC(=O)C=C[C@]4(C)[C@@]3(F)[C@@H](O)C[C@@]21C [Diflorasone, diflorasone diacetate, reference compound]
local lymph node reaction (lymph node weight and cell number) [1]: completely inhibiting the increase | effect on ear swelling (in words) ([2]; topical positive control, ear thickness reduced below level of untreated mice): completely eliminated ear swelling | Inhibition of mouse ear swelling ([2]; topical, 0.1% in 20 μl acetone, 2 h before challenge): 101.1*** % | Inhibition of mouse ear swelling [3]: 110.8*** %
